{"source": "patent US20240148821A1", "about": "“PHARMACEUTICAL USE OF CYCLIC PEPTIDE COMPOUND” (CHUGAI SEIYAKU KABUSHIKI KAISHA, priority 2021, published 2024)", "note": "Bridge positions count the residues as written; N and C are the ends. Square brackets hold non-standard residues; d marks the D form. Peptide text beside a SMILES is read from it. * marks the point of attachment. NMeAbu(3,3-F2-piperidino) = CN[C@@H](CCN1CCCC(F)(F)C1)C(=O)O; hPhe(3-Cl-4-CF3) = N[C@@H](CCc1ccc(C(F)(F)F)c(Cl)c1)C(=O)O; hPhe(3-F,4-CF3) = N[C@@H](CCc1ccc(C(F)(F)F)c(F)c1)C(=O)O; hPhe(4-CF3) = N[C@@H](CCc1ccc(C(F)(F)F)cc1)C(=O)O; NMePhe(4-Cl) = CN[C@@H](Cc1ccc(Cl)cc1)C(=O)O; NMePhe(2-Me) = CN[C@@H](Cc1ccccc1C)C(=O)O; NMeAla(cPent) = CN[C@@H](CC1CCCC1)C(=O)O; Phe(3-I) = N[C@@H](Cc1cccc(I)c1)C(=O)O; dαMeGly(allyl) = C=CC[C@@](C)(N)C(=O)O; Phe(2-F) = N[C@@H](Cc1ccccc1F)C(=O)O; NMe4Pal = CN[C@@H](Cc1ccncc1)C(=O)O; NMeY = CN[C@@H](Cc1ccc(O)cc1)C(=O)O; NMeCha = CN[C@@H](CC1CCCCC1)C(=O)O; NMeChg = CN[C@H](C(=O)O)C1CCCCC1; NMeD = CN[C@@H](CC(=O)O)C(=O)O; NMeL = CN[C@@H](CC(C)C)C(=O)O; NMeV = CN[C@H](C(=O)O)C(C)C; d(β3hA) = C[C@@H](N)CC(=O)O; Pip = O=C(O)[C@@H]1CCCCN1; NMeA = CN[C@@H](C)C(=O)O; NMeAib = CNC(C)(C)C(=O)O; Nle = CCCC[C@H](N)C(=O)O; Piperidide = C1CCN(*)CC1; Ac5c = NC1(C(=O)O)CCCC1; Aze = O=C(O)[C@@H]1CCN1; Aib = CC(C)(N)C(=O)O; Sar = CNCC(=O)O", "data": [{"test_system": "Human pancreatic cancer cell line AsPC-1 (G12D mutation Kras)", "assay": "AsPC-1 cell growth inhibition (AsPC-1 CGI)", "assay_type": "cell-based", "settings": "read-out: AsPC-1 cell growth inhibition, 50% growth inhibitory concentration (IC50 value); 96 hours, CellTiter-Glo, values classified in ranges", "units": {"IC50": "nM"}, "procedure": "Test compounds were serially dilated with dimethyl sulfoxide, and 200 nL was then dispensed to a U-bottom 96-well plate using Labcyte Echo. […] The cell suspension was dispensed to a. plate containing a test compound at 100 μL per well and incubated at 37° C. in a 5% carbon dioxide gas incubator. 96 hours later, 80 μL of CellTiter-Glo (Promega) was added to each well and fluorescence was measured.", "values": [{"smiles": "CC[C@H](C)[C@@H]1NC(=O)[C@H](CC(C)C)N(C)C(=O)C[C@@H](C(=O)N2CCCCC2)N(C)C(=O)[C@H](C2CCCCC2)N(C)C(=O)C2(CCCC2)NC(=O)[C@H](Cc2ccncc2)N(C)C(=O)[C@H](CCc2ccc(C(F)(F)F)c(Cl)c2)NC(=O)CN(C)C(=O)[C@H](CC2CCCCC2)N(C)C(=O)[C@@H]2CCN2C(=O)[C@H](C)N(C)C1=O", "note": "[Compound 656] ([NMeL]I[NMeA][Aze][NMeCha][Sar][hPhe(3-Cl-4-CF3)][NMe4Pal][Ac5c][NMeChg][NMeD]-Piperidide; lactam N-11)", "IC50": "> 500"}, {"smiles": "CC[C@H](C)[C@@H]1NC(=O)[C@H](C)N(C)C(=O)C[C@@H](C)NC(=O)[C@H](CC(C)C)N(C)C(=O)C(C)(C)NC(=O)[C@@H]2CCCN2C(=O)[C@H](CCc2ccc(C(F)(F)F)cc2)NC(=O)CN(C)C(=O)[C@H](Cc2ccc(Cl)cc2)N(C)C(=O)CN(C)C(=O)CN(C)C1=O", "note": "[Compound 664] (cyclo([Aib][NMeL][d(β3hA)][NMeA]I[Sar][Sar][NMePhe(4-Cl)][Sar][hPhe(4-CF3)]P))", "IC50": "> 500"}, {"smiles": "C=CC[C@@]1(C)NC(=O)[C@@H]2CCCN2C(=O)[C@H](CCc2ccc(C(F)(F)F)c(Cl)c2)NC(=O)CN(C)C(=O)[C@H](CC2CCCCC2)N(C)C(=O)CN(C)C(=O)CN(C)C(=O)[C@H]([C@@H](C)CC)NC(=O)[C@H](CC(C)C)N(C)C(=O)C[C@@H](C)NC(=O)[C@H](C(C)C)N(C)C1=O", "note": "[Compound 665] (cyclo(I[Sar][Sar][NMeCha][Sar][hPhe(3-Cl-4-CF3)]P[dαMeGly(allyl)][NMeV][d(β3hA)][NMeL]))", "IC50": "> 500"}, {"smiles": "CC[C@H](C)[C@@H]1NC(=O)[C@H](C)N(C)C(=O)C[C@@H](C)NC(=O)[C@H](C(C)C)N(C)C(=O)C2(CCCC2)NC(=O)[C@@H]2CCCN2C(=O)[C@H](CCc2ccc(C(F)(F)F)c(Cl)c2)NC(=O)[C@H]2CCCN2C(=O)[C@H](CC2CCCCC2)N(C)C(=O)[C@@H]2CCCN2C(=O)CN(C)C1=O", "note": "[Compound 666] (cyclo([Ac5c][NMeV][d(β3hA)][NMeA]I[Sar]P[NMeCha][dP][hPhe(3-Cl-4-CF3)]P))", "IC50": "> 500"}, {"smiles": "CC[C@H](C)[C@@H]1NC(=O)[C@@H]2CCCCN2C(=O)C[C@@H](C(=O)N2CCCCC2)N(C)C(=O)[C@H](C(C)C)N(C)C(=O)C2(CCCC2)NC(=O)[C@@H]2CCCN2C(=O)[C@H](CCc2ccc(C(F)(F)F)c(F)c2)NC(=O)CN(C)C(=O)[C@H](CC2CCCCC2)N(C)C(=O)CN(C)C(=O)CN(C)C1=O", "note": "[Compound 670] ([Pip]I[Sar][Sar][NMeCha][Sar][hPhe(3-F,4-CF3)]P[Ac5c][NMeV][NMeD]-Piperidide; lactam N-11)", "IC50": "> 500"}, {"smiles": "CCCC[C@@H]1NC(=O)[C@H](Cc2ccccc2F)NC(=O)CN(C)C(=O)[C@H](Cc2ccc(OC)cc2)N(C)C(=O)CN(C)C(=O)CN(C)C(=O)[C@H]([C@@H](C)CC)NC(=O)[C@H](CC(C)C)N(C)C(=O)C[C@@H](C(=O)N2CCCCC2)N(C)C(=O)[C@H](CC(C)C)NC(=O)[C@H](Cc2ccc(OC)cc2)N(C)C1=O", "note": "[Compound 681] ([NMeL]I[Sar][Sar][NMeY](Me)[Sar][Phe(2-F)][Nle][NMeY](Me)L[NMeD]-Piperidide; lactam N-11)", "IC50": "> 500"}, {"smiles": "CC[C@H](C)[C@@H]1NC(=O)[C@H](C)N(C)C(=O)C[C@@H](C(=O)N2CCCCC2)N(C)C(=O)[C@H](C(C)C)N(C)C(=O)C2(CCCC2)NC(=O)[C@H](CCN2CCCC(F)(F)C2)N(C)C(=O)[C@H](CCc2ccc(C(F)(F)F)c(Cl)c2)NC(=O)CN(C)C(=O)[C@H](CC2CCCCC2)N(C)C(=O)[C@@H]2CCN2C(=O)[C@H](C)N(C)C1=O", "note": "[Compound 682] ([NMeA]I[NMeA][Aze][NMeCha][Sar][hPhe(3-Cl-4-CF3)][NMeAbu(3,3-F2-piperidino)][Ac5c][NMeV][NMeD]-Piperidide; lactam N-11)", "IC50": "> 500"}, {"smiles": "CC[C@H](C)[C@@H]1NC(=O)[C@H](CC(C)C)N(C)C(=O)C[C@@H](C(=O)N2CCCCC2)N(C)C(=O)[C@H](C2CCCCC2)N(C)C(=O)C2(CCCC2)NC(=O)[C@H](CC(=O)O)N(C)C(=O)[C@H](CCc2ccc(C(F)(F)F)c(Cl)c2)NC(=O)CN(C)C(=O)[C@H](CC2CCCCC2)N(C)C(=O)CN(C)C(=O)CN(C)C1=O", "note": "[Compound 688] ([NMeL]I[Sar][Sar][NMeCha][Sar][hPhe(3-Cl-4-CF3)][NMeD][Ac5c][NMeChg][NMeD]-Piperidide; lactam N-11)", "IC50": "> 500"}, {"smiles": "CCCC[C@@H]1NC(=O)[C@H](CCc2ccc(C(F)(F)F)c(Cl)c2)NC(=O)CN(C)C(=O)[C@H](CC2CCCC2)N(C)C(=O)[C@@H]2CCN2C(=O)[C@H](C)N(C)C(=O)[C@H]([C@@H](C)CC)NC(=O)[C@H](CC(C)C)N(C)C(=O)C[C@@H](C(=O)N2CCCCC2)N(C)C(=O)[C@H](CC(C)C)NC(=O)C(C)(C)N(C)C1=O", "note": "[Compound 691] ([NMeL]I[NMeA][Aze][NMeAla(cPent)][Sar][hPhe(3-Cl-4-CF3)][Nle][NMeAib]L[NMeD]-Piperidide; lactam N-11)", "IC50": "> 500"}, {"smiles": "CCCC[C@@H]1NC(=O)[C@H](Cc2cccc(I)c2)NC(=O)CN(C)C(=O)[C@H](Cc2ccc(Cl)cc2)N(C)C(=O)CN(C)C(=O)CN(C)C(=O)[C@H]([C@@H](C)CC)NC(=O)[C@H](CC(C)C)N(C)C(=O)C[C@@H](C(=O)N2CCCCC2)N(C)C(=O)[C@H](CC(C)C)NC(=O)[C@H](Cc2ccccc2C)N(C)C1=O", "note": "[Compound 696] ([NMeL]I[Sar][Sar][NMePhe(4-Cl)][Sar][Phe(3-I)][Nle][NMePhe(2-Me)]L[NMeD]-Piperidide; lactam N-11)", "IC50": "> 500"}]}]}
